Reference: ChEMBL document CHEMBL5233287, “In Vitro Hypoglycemic Diterpenoids from the Roots of Croton yunnanensis” (J Nat Prod, 2023)
Activity calls are given as the source filed them. The rule behind the calls is not given here.

Each compound was assayed on 3T3-L1 (assay: Hypoglycemic activity in insulin-resistant mouse 3T3-L1 cells assessed as increase in 2-deoxyglucose uptake treated with compound for 10 mins followed by 2-deoxyglucose challenge for 30 mins by liquid scintillation counting analysis). Settings: time 40.0 min.
Format: functional, cell-based

SMILES	Activity
COC(=O)C1=CCC[C@@H]2[C@]34C[C@@H](C5=CC(=O)O[C@H]5OC)O[C@@H]3O[C@]12CC[C@H]4C	Active
COC(=O)C1=CCC[C@@H]2[C@]34C[C@@H](C5=C[C@@H](OC)OC5=O)O[C@@H]3O[C@]12CC[C@H]4C	Active
C=C1CC[C@]23[C@@H](OC(=O)c4ccccc4)O[C@H]4O[C@H](c5ccoc5)C[C@]14[C@H]2CCC(=O)[C@@]3(O)C(=O)OC	Active
COC(=O)C1=CCC[C@H]2[C@@]13CC[C@@H](C)[C@]21C[C@@H](C2=CC(=O)O[C@H]2OC)O[C@@H]1O[C@@H]3OC	Active
COC(=O)C1=CCC[C@@H]2[C@]34C[C@@H](c5ccoc5)O[C@@H]3O[C@]12CC[C@H]4C	Active
COC(=O)C1=CCC[C@H]2[C@@]13CC[C@@H](C)[C@]21C[C@@H](C2=C[C@@H](OC)OC2=O)O[C@@H]1OC3=O	Active
COC(=O)[C@H]1C=CC[C@H]2[C@@]13CC[C@@H](C)[C@]21C[C@@H](C2=CC(=O)O[C@H]2OC)O[C@@H]1O3	Active

These compounds were tested on 3T3-L1 (assay: Insulin sensitizing activity in mouse 3T3-L1 cells assessed as increase in 2-deoxyglucose uptake at 5 to 20 uM treated with compound and insulin for 10 mins followed by 2-deoxyglucose challenge for 30 mins by liquid scintillation counting analysis). Settings: dose 5-20 µM, time 40.0 min.
Format: functional, cell-based

SMILES	Activity
COC(=O)C1=CCC[C@@H]2[C@]34C[C@@H](C5=CC(=O)O[C@H]5OC)O[C@@H]3O[C@]12CC[C@H]4C	Active
C=C1CC[C@]23[C@@H](OC(=O)c4ccccc4)O[C@H]4O[C@H](c5ccoc5)C[C@]14[C@H]2CCC(=O)[C@@]3(O)C(=O)OC	Active
